Experimental data: DBAASP
In brackets after ≈: the same amount, converted by molar mass. Several values for one entry are separate records, joined by “and”; a condition that tells them apart may be missing. Identical values can stand only once. Each block holds one compound with its values, some of them ahead of it.

Assays:
Assay in all cases: ≥ marks a high value that may be exact or a test limit, other limits are often not marked, values filed in µg/mL are converted to µM
Bacillus subtilis = system: Bacillus subtilis
[1] = system: Candida albicans ATCC 2002
[2] = system: Staphylococcus aureus ATCC 2592
[3] = system: Escherichia coli ATCC 25922
Escherichia coli JW0013 = system: Escherichia coli JW0013
[4] = system: Salmonella enterica subsp. enterica serovar Typhimurium C77-31
[5] = system: Enterococcus faecalis ATCC 29212
[6] = system: Staphylococcus epidermidis ATCC 12228
Escherichia coli UB1005 = system: Escherichia coli UB1005
[7] = system: Staphylococcus aureus ATCC 25923
[8] = system: Staphylococcus aureus ATCC 29213
[9] = system: Staphylococcus aureus ATCC 33591
[10] = system: Pseudomonas aeruginosa ATCC 27853

MIC [4]: 16 µM (≈ 36.8 µg/mL) | MIC [5]: 8 µM (≈ 18.4 µg/mL) | MIC [6]: 32 µM (≈ 73.6 µg/mL) | MIC (Escherichia coli UB1005): 16 µM (≈ 36.8 µg/mL)
Compound: CC[C@H](C)[C@H](NC(=O)[C@H](CCCCN)NC(=O)[C@H](Cc1c[nH]c2ccccc12)NC(=O)[C@H](CC(C)C)NC(=O)[C@H](CCCN=C(N)N)NC(=O)[C@H](CCCCN)NC(=O)[C@H](CCCN=C(N)N)NC(=O)[C@@H](NC(=O)[C@H](CCCCN)NC(=O)[C@H](Cc1c[nH]c2ccccc12)NC(=O)[C@H](CCCN=C(N)N)NC(=O)[C@H](CC(C)C)NC(=O)[C@H](CCCN=C(N)N)NC(=O)[C@H](CCCN=C(N)N)NC(=O)[C@H](Cc1ccccc1)NC(=O)[C@@H](N)CCCN=C(N)N)[C@@H](C)O)C(N)=O [RFRRLRWKTRKRLWKI]

MIC (Bacillus subtilis): 1.97 µM (≈ 3.1 µg/mL) | MIC [1]: 15.9 µM (≈ 25 µg/mL) | MIC [2]: 4.01 µM (≈ 6.3 µg/mL) | MIC [3]: 31.8 µM (≈ 50 µg/mL)
Compound: CC[C@H](C)[C@H](NC(=O)[C@H](CC(C)C)NC(=O)[C@H](CC(=O)O)NC(=O)[C@H](CCC(N)=O)NC(=O)[C@H](CCC(N)=O)NC(=O)[C@H](CC(C)C)NC(=O)[C@H](CCC(=O)O)NC(=O)[C@@H]1CCCN1C(=O)[C@@H](N)Cc1ccc(O)cc1)C(=O)N[C@@H](C)C(=O)N[C@@H](CCCN=C(N)N)C(=O)N[C@@H](CC(C)C)C(=O)N[C@@H](CC(C)C)C(=O)O [YPELQQDLIARLL]

MIC [4]: 16 µM (≈ 34.4 µg/mL) | MIC [5]: 16 µM (≈ 34.4 µg/mL) | MIC [6]: 16 µM (≈ 34.4 µg/mL) | MIC [8]: 64 µM and > 32 µM | MIC [3]: 8 µM and > 4 µM | MIC (Escherichia coli UB1005): 16 µM (≈ 34.4 µg/mL)
Compound: CC[C@H](C)[C@H](NC(=O)[C@H](CCCCN)NC(=O)[C@H](CCCCN)NC(=O)[C@H](CC(C)C)NC(=O)[C@H](CCCN=C(N)N)NC(=O)[C@@H](NC(=O)[C@H](CCCN=C(N)N)NC(=O)[C@@H](NC(=O)[C@H](CCCCN)NC(=O)[C@@H](NC(=O)[C@H](CCCN=C(N)N)NC(=O)[C@H](CC(C)C)NC(=O)[C@H](CCCN=C(N)N)NC(=O)[C@H](CCCN=C(N)N)NC(=O)[C@H](Cc1ccccc1)NC(=O)[C@@H](N)CCCN=C(N)N)[C@@H](C)CC)[C@@H](C)O)[C@@H](C)CC)C(N)=O [RFRRLRIKTRIRLKKI]

MIC [9]: 16 µM (≈ 37.4 µg/mL) | MIC [3]: 16 µM (≈ 37.4 µg/mL)
Compound: CC[C@H](C)[C@H](NC(=O)[C@H](CCC(N)=O)NC(=O)[C@H](CC(C)C)NC(=O)[C@H](CCC(N)=O)NC(=O)[C@@H](NC(=O)[C@H](CCCN=C(N)N)NC(=O)[C@H](Cc1ccccc1)NC(=O)[C@H](Cc1c[nH]c2ccccc12)NC(=O)[C@@H](N)CCCN=C(N)N)[C@@H](C)CC)C(=O)N[C@@H](CCCN=C(N)N)C(=O)N[C@@H](CCCN=C(N)N)C(=O)N[C@@H](Cc1c[nH]c2ccccc12)C(=O)N[C@@H](CCCN=C(N)N)C(=O)N[C@@H](CC(N)=O)C(=O)N[C@@H](CCCN=C(N)N)C(=O)N[C@@H](CCCN=C(N)N)C(N)=O [RWFRIQLQIRRWRNRR]

MIC (Escherichia coli JW0013): 0.524 µM (≈ 1.3 µg/mL)
Compound: CC[C@H](C)[C@H](NC(=O)[C@H](CCCN=C(N)N)NC(=O)[C@H](CCCN=C(N)N)NC(=O)[C@@H]1CCCN1C(=O)[C@@H]1CCCN1C(=O)[C@H](CCCN=C(N)N)NC(=O)[C@@H]1CCCN1C(=O)[C@H](CCCN=C(N)N)NC(=O)[C@@H]1CCCN1C(=O)[C@H](CC(C)C)NC(=O)[C@H](CCCN=C(N)N)NC(=O)[C@H](Cc1cnc[nH]1)NC(=O)[C@H](CCCN=C(N)N)NC(=O)[C@H](CCCCN)NC(=O)[C@H](CC(=O)O)NC(=O)[C@@H](N)C(C)C)C(=O)N[C@@H](Cc1ccc(O)cc1)C(=O)N[C@@H](CC(N)=O)C(=O)N[C@@H](CCCN=C(N)N)C(N)=O [VDKRHRLPRPRPPRRIYNR]

MIC (Bacillus subtilis): 1.37 µM (≈ 2.34 µg/mL) | MIC [1]: 2.75 µM (≈ 4.68 µg/mL) | MIC [2]: 1.03 µM (≈ 1.76 µg/mL) | MIC [3]: 1.37 µM (≈ 2.34 µg/mL)
Compound: CC[C@H](C)[C@@H]1NC(=O)[C@H](CO)NC(=O)[C@H](CCCCN)NC(=O)[C@H]([C@@H](C)O)NC(=O)[C@H](Cc2c[nH]c3ccccc23)NC(=O)[C@@H](NC(=O)CNC(=O)[C@H](CCCCN)NC(=O)[C@@H](N)CC(C)C)CSSC[C@@H](C(=O)N[C@@H](Cc2ccccc2)C(=O)O)NC(=O)[C@@H]2CCCN2C(=O)[C@H](CCCCN)NC(=O)[C@@H]2CCCN2C(=O)[C@@H]2CCCN2C1=O [LKGCWTKSIPPKPCF]

Further lines, the compound ahead of its results:

Compound: CC[C@H](C)[C@H](NC(=O)CNC(=O)[C@H](CO)NC(=O)[C@H](CCCN=C(N)N)NC(=O)[C@@H](N)Cc1ccccc1)C(=O)N[C@@H](CC(C)C)C(=O)N[C@@H](CCCCN)C(=O)N[C@@H](CC(C)C)C(=O)N[C@@H](C)C(=O)N[C@@H](CO)C(=O)N[C@@H](CCCCN)C(=O)N[C@H](C(=O)N1CCC[C@H]1C(=O)N[C@@H](CO)C(=O)N[C@H](C(=O)N[C@@H](CC(C)C)C(=O)N[C@H]1CSSC[C@@H](C(=O)O)NC(=O)[C@H](CC(N)=O)NC(=O)[C@H](CCCCN)NC(=O)[C@H](CC(C)C)NC(=O)[C@H](C(C)C)NC(=O)[C@H](C)NC1=O)C(C)C)[C@@H](C)CC [FRSGILKLASKIPSVLCAVLKNC]
MIC (Bacillus subtilis): 20.3 µM (≈ 50 µg/mL) | MIC [1]: 10.2 µM (≈ 25 µg/mL) | MIC [2]: 5.08 µM (≈ 12.5 µg/mL) | MIC [3]: 20.3 µM (≈ 50 µg/mL)

Compound: CC[C@H](C)[C@H](NC(=O)[C@H](CCCN=C(N)N)NC(=O)[C@H](CCCN=C(N)N)NC(=O)[C@@H]1CCCN1C(=O)[C@@H]1CCCN1C(=O)[C@H](CCCN=C(N)N)NC(=O)[C@H](CCCN=C(N)N)NC(=O)[C@H](CCCN=C(N)N)NC(=O)[C@@H]1CCCN1C(=O)[C@H](CCCN=C(N)N)NC(=O)[C@H](Cc1ccc(O)cc1)NC(=O)[C@@H]1CCCN1C(=O)[C@H](CCCCN)NC(=O)[C@H](CCCCN)NC(=O)[C@H](CC(=O)O)NC(=O)[C@@H](N)C(C)C)C(=O)N[C@@H](Cc1ccc(O)cc1)C(=O)N[C@@H](CC(N)=O)C(=O)N[C@@H](CCCN=C(N)N)C(N)=O [VDKKPYRPRRRPPRRIYNR]
MIC (Escherichia coli JW0013): 0.634 µM (≈ 1.6 µg/mL)

Compound: CC[C@H](C)[C@H](NC(=O)[C@H](CCCN=C(N)N)NC(=O)[C@H](CCCN=C(N)N)NC(=O)[C@@H]1CCCN1C(=O)[C@@H]1CCCN1C(=O)[C@H](CCCN=C(N)N)NC(=O)[C@@H]1CCCN1C(=O)[C@H](CCCN=C(N)N)NC(=O)[C@@H]1CCCN1C(=O)[C@H](CC(C)C)NC(=O)[C@H](CCCCN)NC(=O)[C@@H]1CCCN1C(=O)[C@@H]1CCCN1C(=O)[C@H](CCCCN)NC(=O)[C@H](CC(=O)O)NC(=O)[C@@H](N)C(C)C)C(=O)N[C@@H](Cc1ccc(O)cc1)C(=O)N[C@@H](CC(N)=O)C(=O)N[C@@H](CCCN=C(N)N)C(N)=O [VDKPPKLPRPRPPRRIYNR]
MIC (Escherichia coli JW0013): 2.04 µM (≈ 4.8 µg/mL)

Compound: CC(C)C[C@H](NC(=O)[C@H](CCCN=C(N)N)NC(=O)[C@H](Cc1c[nH]c2ccccc12)NC(=O)[C@H](CCCN=C(N)N)NC(=O)[C@@H](NC(=O)[C@H](Cc1c[nH]c2ccccc12)NC(=O)[C@H](Cc1c[nH]c2ccccc12)NC(=O)[C@H](CCCN=C(N)N)NC(=O)[C@H](CC(C)C)NC(=O)[C@H](Cc1c[nH]c2ccccc12)NC(=O)[C@@H](N)CCCN=C(N)N)[C@@H](C)O)C(=O)N[C@@H](CCCCN)C(N)=O [RWLRWWTRWRLK]
MIC [7]: 2 µM (≈ 3.68 µg/mL) | MIC [4]: 4 µM (≈ 7.37 µg/mL) | MIC [6]: 4 µM (≈ 7.37 µg/mL) | MIC [8]: 4 µM (≈ 7.37 µg/mL) | MIC [3]: 4 µM (≈ 7.37 µg/mL) | MIC (Escherichia coli UB1005): 2 µM (≈ 3.68 µg/mL)

Compound: CC[C@H](C)[C@H](NC(=O)[C@H](CCCN=C(N)N)NC(=O)[C@H](CCCN=C(N)N)NC(=O)[C@@H]1CCCN1C(=O)[C@@H]1CCCN1C(=O)[C@H](CCCN=C(N)N)NC(=O)[C@@H]1CCCN1C(=O)[C@H](CCCN=C(N)N)NC(=O)[C@@H]1CCCN1C(=O)[C@H](CC(C)C)NC(=O)[C@H](Cc1ccc(O)cc1)NC(=O)[C@@H]1CCCN1C(=O)[C@H](CC(=O)O)NC(=O)[C@H](CCCCN)NC(=O)[C@H](CC(=O)O)NC(=O)[C@@H](N)C(C)C)C(=O)N[C@@H](Cc1ccc(O)cc1)C(=O)N[C@@H](CC(N)=O)C(=O)N[C@@H](CCCN=C(N)N)C(N)=O [VDKDPYLPRPRPPRRIYNR]
MIC (Escherichia coli JW0013): 1.99 µM (≈ 4.8 µg/mL)

Compound: CC[C@H](C)[C@H](NC(=O)[C@H](CCCN=C(N)N)NC(=O)[C@H](CCCN=C(N)N)NC(=O)[C@@H]1CCCN1C(=O)[C@@H]1CCCN1C(=O)[C@H](CCCN=C(N)N)NC(=O)[C@@H]1CCCN1C(=O)[C@H](CCCN=C(N)N)NC(=O)[C@@H]1CCCN1C(=O)[C@H](CC(C)C)NC(=O)[C@H](CCCN=C(N)N)NC(=O)[C@@H]1CCCN1C(=O)[C@@H]1CCCN1C(=O)[C@H](CCCCN)NC(=O)[C@H](CC(=O)O)NC(=O)[C@@H](N)C(C)C)C(=O)N[C@@H](Cc1ccc(O)cc1)C(=O)N[C@@H](CC(N)=O)C(=O)N[C@@H](CCCN=C(N)N)C(N)=O [VDKPPRLPRPRPPRRIYNR]
MIC (Escherichia coli JW0013): 1.38 µM (≈ 3.3 µg/mL)

Compound: NC(=O)[C@H](CCCN=C(N)N)NC(=O)[C@H](CCCN=C(N)N)NC(=O)[C@@H]1CCCN1C(=O)[C@H](CCCN=C(N)N)NC(=O)[C@H](CCCN=C(N)N)NC(=O)[C@H](CCCN=C(N)N)NC(=O)[C@H](Cc1c[nH]c2ccccc12)NC(=O)[C@H](CCCN=C(N)N)NC(=O)[C@H](CCCN=C(N)N)NC(=O)[C@H](CCCN=C(N)N)NC(=O)[C@H](CCCN=C(N)N)NC(=O)[C@H](CCCN=C(N)N)NC(=O)[C@H](Cc1c[nH]c2ccccc12)NC(=O)[C@H](CCCN=C(N)N)NC(=O)[C@H](CCCN=C(N)N)NC(=O)[C@H](Cc1ccc(O)cc1)NC(=O)[C@H](CCCN=C(N)N)NC(=O)[C@H](CCCN=C(N)N)NC(=O)[C@H](CCCN=C(N)N)NC(=O)[C@@H](N)Cc1c[nH]c2ccccc12 [WRRRYRRWRRRRRWRRRPRR]
MIC [7]: 1.56 µM (≈ 4.96 µg/mL) | MIC [9]: 1.56 µM (≈ 4.96 µg/mL) | MIC [10]: 3.13 µM (≈ 9.95 µg/mL) | MIC [3]: 3.13 µM (≈ 9.95 µg/mL)
